Test results from patent publication US10329262B2, “Quinazolinone antibiotics” (priority 2013, dated 2019).
In brackets after ≈: the same amount, converted by molar mass. Where two headings read alike, the source gives them in different places.

Tests used:
[1] = test system: S. aureus ATCC 29213 (MSSA); assay: MIC, CLSI broth microdilution, S. aureus ATCC 29213; format: cell-based, Staphylococcus aureus; conditions: for MIC (w/ BSA): S. aureus ATCC 29213, in the presence of bovine serum albumin; for MIC: S. aureus strain ATCC 29213 (MSSA); for In vitro AB activity (MIC): Table 2.1, S. aureus ATCC 29213
Protocol: (§1) MICs were evaluated following the CLSI microdilution method in BBL™ Mueller-Hinton II broth (Wikler et al., Clinical Laboratory Standards Institute Document M7-A7, 29 (2009)). Briefly, two-fold serial dilutions of compound were prepared in triplicate in 96-well plates and inoculated with 5×10^5 cfu/mL of the bacterial suspension. Plates were incubated at 37° C. for 16-20 hours.

S. aureus VRS2 = assay: MIC, CLSI broth microdilution, S. aureus VRS2; format: cell-based, Staphylococcus aureus; conditions: for In vitro AB activity (MIC): Table 2.1, S. aureus VRS2
Protocol: as §1

MRSA ATCC 27660 = assay: Mouse peritonitis model of MRSA infection; format: in vivo, mice; conditions: n = 6, 48 h
Protocol: We evaluated several compounds in in vivo mouse infection models, as well as in pharmacokinetic (PK) studies in mice (Table 1). The in vivo efficacy was determined using the rapid mouse peritonitis model of infection, in which the end point is death or survival in 48 hours. We initially dosed the compounds intravenously (iv) at a single dose level. If the compound has good in vivo efficacy after iv administration, we then evaluated efficacy at five dose levels. We also investigated in vivo efficacy after oral (po) administration.
Groups (n=6/group) of mice were infected with MRSA (0.5 mL of ATCC 27660 at a final concentration of 5×10^7 CFU/mL in 5% porcine mucin) intraperitoneally (ip). Following infection, mice were given iv doses by tail vein injection of compound 2, vancomycin (5 mg/kg, positive control), or vehicle at 30 min and 4.5 h after infection. The number of surviving mice was monitored for 48 h. The negative control (vehicle) typically results in the death of all mice. Quinazolinone 2 was dissolved in saline, sterile-filtered, and administered at doses of 2.5, 5, 7.5, 10, 20, and 30 mg/kg. The ED50 value was calculated using GraphPad prism 5.

S. aureus NRS120 = assay: MIC, CLSI broth microdilution, S. aureus NRS120; format: cell-based, Staphylococcus aureus; conditions: for In vitro AB activity (MIC): Table 2.1, S. aureus NRS120
Protocol: as §1

[2] = test system: S. epidermidis ATCC 35547; assay: MIC, CLSI broth microdilution, S. epidermidis ATCC 35547; format: cell-based; conditions: for In vitro AB activity (MIC): Table 2.1, S. epidermidis ATCC 35547
Protocol: as §1

S. aureus VRS1 = assay: MIC, CLSI broth microdilution, S. aureus VRS1; format: cell-based, Staphylococcus aureus; conditions: for In vitro AB activity (MIC): Table 2.1, S. aureus VRS1
Protocol: as §1

S. aureus NRS119 = assay: MIC, CLSI broth microdilution, S. aureus NRS119; format: cell-based, Staphylococcus aureus; conditions: for In vitro AB activity (MIC): Table 2.1, S. aureus NRS119
Protocol: as §1

Pharmacokinetics in mice = conditions: Table 1, ICR female mice, single dose iv
Protocol: We conducted first fast PK studies (n=2 mice per time point, 5 time points) dosing the compounds iv, followed by full PK studies for selected compounds (n=3 mice per time point, 10-12 time points per route of administration, iv and po).
A single dose of compound 2 was administered to mice (n=3 per time point) by tail vein injection or by oral gavage at 10 mg/kg. Blood was collected by cardiac puncture in heparinized syringes at 2, 5, 20, and 40 min and at 1, 2, 3, 4, 8, 18, and 24 h after iv dosing and at 0.5, 1, 2, 3, 4, 6, 9, 24, and 30 h after po dosing. Blood was centrifuged to obtain plasma. A 50-μL aliquot of plasma was mixed with 100 μL of acetonitrile containing internal standard (5 μM final concentration), followed by centrifugation at 20,000 g for 15 min. The supernatant was analyzed by reverse-phase UPLC. PK parameters were calculated as described in the Plasma protein binding and Pharmacokinetics sections below (see also Gooyit et al. J. Med. Chem. 54, 6676-6690 (2011)).
The area under the concentration-time curve up to the last quantifiable sampling time (AUC0-last) was calculated by the trapezoidal rule. AUC0-∞ was calculated as AUC0-last+(Clast/k), where Clast is the concentration at the last quantifiable sampling time and k is the elimination rate constant. The concentration at time=0 (C0) was estimated from the first sampling times by back-extrapolation using log-linear regression analysis. Half-lives (t1/2α and t1/2β) were estimated from the linear portion of the initial or terminal concentration-time data by linear regression, where the slope of the line was the rate constant k and t1/2α=ln 2/k. Volume of distribution (Vd) was calculated as the dose divided by the initial concentration (C0). Clearance (CL) was calculated from the dose divided by AUC0-∞. Oral bioavailability (F) was calculated by dividing the AUCpo by the AUCiv, as equivalent iv and po doses were administered.

[3] = test system: S. haemolyticus ATCC 29970; assay: MIC, CLSI broth microdilution, S. haemolyticus ATCC 29970; format: cell-based; conditions: for In vitro AB activity (MIC): Table 2.1, S. haemolyticus ATCC 29970
Protocol: as §1

S. aureus NRS100 = assay: MIC, CLSI broth microdilution, S. aureus NRS100; format: cell-based, Staphylococcus aureus; conditions: for In vitro AB activity (MIC): Table 2.1, S. aureus NRS100
Protocol: as §1

S. aureus NRS123 = assay: MIC, broth microdilution, S. aureus NRS123; format: cell-based; conditions: Staphylococcus aureus
Protocol: as §1

S. aureus NRS70 = assay: MIC, broth microdilution, S. aureus NRS70; format: cell-based, Staphylococcus aureus; conditions: for MIC: Staphylococcus aureus; for In vitro AB activity (MIC): Table 2.1, S. aureus NRS70
Protocol: as §1

S. aureus NRS128 = assay: MIC, CLSI broth microdilution, S. aureus NRS128; format: cell-based, Staphylococcus aureus; conditions: Table 2.1, S. aureus NRS128
Protocol: as §1

Row | SMILES | MIC (w/ BSA) [1] [µg/mL] | MIC [1] [µg/mL] | AUC (iv) (Pharmacokinetics in mice) | CL (Pharmacokinetics in mice) | Vd (Pharmacokinetics in mice) | In vitro AB activity (MIC) [1] [µg/mL] | In vitro AB activity (MIC) (S. aureus VRS2) [µg/mL] | In vitro AB activity (MIC) (S. aureus NRS120) [µg/mL] | In vitro AB activity (MIC) [2] [µg/mL] | In vitro AB activity (MIC) (S. aureus VRS1) [µg/mL] | In vitro AB activity (MIC) (S. aureus NRS119) [µg/mL] | In vitro AB activity (MIC) [3] [µg/mL] | In vitro AB activity (MIC) (S. aureus NRS70) [µg/mL] | In vitro AB activity (MIC) (S. aureus NRS128) [µg/mL] | In vitro AB activity (MIC) (S. aureus NRS100) [µg/mL] | other results
1 | CC(=O)Nc1cccc(-n2c(/C=C/c3ccc(C#N)cc3)nc3ccccc3c2=O)c1 [Compound 8] | 2 | 0.25 (≈ 0.615 µM) | AUC = 1187 μg.min/mL | CL = 131 mL/min/kg | Vd = 107 mL |  |  |  |  |  |  |  |  |  |  | MIC (S. aureus VRS2; Table 2, S. aureus VRS2): 0.125 µg/mL (≈ 0.308 µM); In Vivo Efficacy (survived/total mice) (MRSA ATCC 27660; 5 mg/kg iv at 30 min and 4.5 hr after infection): 1/6 @ 5 mg/kg; MIC (S. aureus NRS120; Table 2, S. aureus NRS120): 0.25 µg/mL (≈ 0.615 µM); MIC ([2]; Table 2, S. epidermidis ATCC 35547): 0.06 µg/mL (≈ 0.148 µM); MIC (S. aureus VRS1; Table 2, S. aureus VRS1): 4 µg/mL (≈ 9.84 µM); MIC (S. aureus NRS119; Table 2, S. aureus NRS119): 0.25 µg/mL (≈ 0.615 µM); MIC ([3]; Table 2, S. haemolyticus ATCC 29970): 0.25 µg/mL (≈ 0.615 µM); MIC (S. aureus NRS100; Table 2, S. aureus NRS100): 1 µg/mL (≈ 2.46 µM)
2 | CC(=O)NC[C@H]1CN(c2ccc(N3CCOCC3)c(F)c2)C(=O)O1 [linezolid] |  |  |  |  |  | 4 | 2 | 32 | 1 | 2 | 32 | 2 | 1 | 1 | 2 | MIC (S. aureus VRS2; Staphylococcus aureus, Table 2, S. aureus VRS2, read-out: MIC): 1 µg/mL (≈ 2.96 µM); MIC (S. aureus NRS120; Staphylococcus aureus, Table 2, S. aureus NRS120, read-out: MIC): 64 µg/mL (≈ 190 µM); MIC (S. aureus NRS123; Table 2, S. aureus NRS123, read-out: MIC): 2 µg/mL (≈ 5.93 µM); MIC ([2]; Staphylococcus epidermidis, ATCC35547, Table 2, S. epidermidis ATCC 35547, read-out: MIC): 1 µg/mL (≈ 2.96 µM); MIC (S. aureus VRS1; Staphylococcus aureus, Table 2, S. aureus VRS1, read-out: MIC): 2 µg/mL (≈ 5.93 µM); MIC (S. aureus NRS119; Staphylococcus aureus, Table 2, S. aureus NRS119, read-out: MIC): 64 µg/mL (≈ 190 µM); MIC ([3]; Staphylococcus haemolyticus, ATCC29970, Table 2, S. haemolyticus ATCC 29970, read-out: MIC): 1 µg/mL (≈ 2.96 µM); MIC (S. aureus NRS70; Table 2, S. aureus NRS70, read-out: MIC): 1 µg/mL (≈ 2.96 µM); MIC (S. aureus NRS100; Staphylococcus aureus, Table 2, S. aureus NRS100, read-out: MIC): 2 µg/mL (≈ 5.93 µM)
3 | CO/N=C(\C(=O)N[C@@H]1C(=O)N2C(C(=O)[O-])=C(C[N+]3(C)CCCC3)CS[C@H]12)c1csc(N)n1 [cefepime] |  |  |  |  |  |  |  |  |  |  |  |  |  |  |  | MIC (S. aureus NRS123; NRS123, Table 3, single agent, read-out: MIC NRS123): 32 µg/mL (≈ 66.6 µM); MIC (S. aureus NRS70; NRS70, Table 3, single agent, read-out: MIC NRS70): 64 µg/mL (≈ 133 µM)
4 | CS(=O)(=O)Nc1cccc(-n2c(/C=C/c3ccc(F)cc3)nc3ccccc3c2=O)c1 [Compound 6] | 1 | 0.125 (≈ 0.287 µM) | AUC = 819 μg.min/mL | CL = 28.0 mL/min/kg | Vd = 91.8 mL |  |  |  |  |  |  |  |  |  |  | In Vivo Efficacy (survived/total mice) (MRSA ATCC 27660; 10 mg/kg iv at 30 min and 4.5 hr after infection): 0/6 @ 10 mg/kg
5 | CN[C@H](CC(C)C)C(=O)N[C@H]1C(=O)N[C@@H](CC(N)=O)C(=O)N[C@H]2C(=O)N[C@H]3C(=O)N[C@H](C(=O)N[C@H](C(=O)O)c4cc(O)cc(O)c4-c4cc3ccc4O)[C@H](O)c3ccc(c(Cl)c3)Oc3cc2cc(c3O[C@@H]2O[C@H](CO)[C@@H](O)[C@H](O)[C@H]2O[C@H]2C[C@](C)(N)[C@H](O)[C@H](C)O2)Oc2ccc(cc2Cl)[C@H]1O [vancomycin] |  |  |  |  |  | 1 | 64 | 2 | 16 | 512 | 2 | 2 | 1 | 1 | 2 | MIC (S. aureus VRS2; Staphylococcus aureus, VRS2): 64 µg/mL (≈ 44.2 µM); MIC (S. aureus NRS120; Staphylococcus aureus, NRS120): 2 µg/mL (≈ 1.38 µM); MIC (S. aureus NRS123; NRS123): 1 µg/mL (≈ 0.69 µM); MIC ([2]; Staphylococcus epidermidis, ATCC35547): 64 µg/mL (≈ 44.2 µM); MIC (S. aureus VRS1; Staphylococcus aureus, VRS1): > 256 µg/mL; MIC (S. aureus NRS119; Staphylococcus aureus, NRS119): 2 µg/mL (≈ 1.38 µM); MIC ([3]; Staphylococcus haemolyticus, ATCC29970): 2 µg/mL (≈ 1.38 µM); MIC (S. aureus NRS70; NRS70): 1 µg/mL (≈ 0.69 µM); MIC (S. aureus NRS100; Staphylococcus aureus, NRS100): 2 µg/mL (≈ 1.38 µM)
